# Data reported in patent US9534008B2, “Small molecule compounds that control plant- and insect-pathogenic nematodes” (California Institute of Technology, priority 2011, dated 2017).
# Tests used:
# C. elegans dauer larvae = assay: Dispersal assay, C. elegans dauer; assay type: in vivo; conditions: for dispersing nematodes, normalized to percent of the positive control response: physiological concentration, with 0.25% E. coli (HB101), positive control dauer conditioned medium; for substitution for ascr#2 in the C. elegans dispersal blend: in vivo
# Protocol: C. elegans dauer juveniles were washed with MILLI-Q water 3 times, placed into 6 cm petri dishes with a small amount of water, and rested overnight. Approximately 200-300 nematodes in 10 μl of water were placed on an agar plate, to which 2 μl of treatment was added. The liquid culture that produced 60% dauer animals was centrifuged, filtered with a 0.45 μm filter, and used as a positive control for dispersal. Thereafter, media were lyophilized and resuspended in MILLI-Q water 5 times. 2 μl to 10 μl of nematode suspension was used for the assay. As a negative control, 0.5% E. coli (HB101) was prepared in S-complete, lyophilized, and adjusted to the final volume of 0.25% E. coli in the assay.
# Nematodes were quantified using Image J software (Image Processing and Analysis in Java, National Institutes of Health). The number of nematodes visualized and counted using Image J is illustrated in FIG. 63B. Nematodes inside the circle were subtracted manually from the total number of worms counted because of the location of their placement. Each treatment was replicated 9-11 times. The graph was normalized to the positive control, the dauer conditioned medium.
# C. elegans males = assay: Attraction assay (long-range, point source); conditions: in vivo
# Protocol: 10 cm standard chemotaxis plates were prepared (Bargmann et al., Cell 74:515-27 (1993), which is hereby incorporated by reference in its entirety) and stored at 4° C. until the day before use. Standard 1 cm-diameter copper pipes were sectioned into 1 cm-tall segments to use for the holding chambers. The females/hermaphrodites were isolated overnight, washed 3 times in M9 buffer, and then allowed to wander on a plate pre-conditioned with 50 uL of 1000× streptomycin for 2 hours to kill any bacteria that might produce a false positive attractant. The nematodes were then washed 3 times, and the supernatant from the last wash was placed in a copper chamber, as the control, 1 cm from the border of the 10 cm plate. The nematodes were suspended in M9 within the copper chamber, 1 cm from the border opposite the control chamber. After 6 hours, they were subsequently removed and replaced with 3 μL of 1M sodium azide. 100 C. elegans adult males were isolated overnight, washed several times in ddH2O, and placed at the center of the agar plate. After several hours, males paralyzed within 2 cm of each region were scored. The Chemotaxis Index (Bargmann et al., Cell 74:515-27 (1993), which is hereby incorporated by reference in its entirety) was then used to score male chemotaxis to either point source.
# C. elegans [1] = assay: Ascaroside function (Table 12), C. elegans; assay type: in vivo, Caenorhabditis elegans; design: key to Attract Females/Herm. / Promote Dauer Formation / Attract Males: A very strong result of affecting nematode behavior is designated in the table as “strong.”
# Protocol: (§1) Various ascarosides and ascaroside blends were administered to various nematodes described below (Table 12). […] A very strong result of affecting nematode behavior is designated in the table as “strong.”
# S. feltiae = assay: Ascaroside function (Table 12), S. feltiae; assay type: in vivo, Steinernema feltiae
# Protocol: as §1
# C. elegans [2] = conditions: from 1 μM concentration; cited from earlier work
# C. elegans [3] = conditions: in vivo; cited from earlier work
# [4] = tested on: several of the tested nematode species; assay: Retention assay, across species; assay type: in vivo; conditions: 1 nM, 1 μM and 1 mM tested
# Protocol: OP50 E. coli was grown on a standard 5 cm agar plate (made with standard Nematode Growth Medium). The bacterial lawn was 16 mm in diameter and was grown overnight at 20° C. before being used in trials. Two 4 mm spots (0.6 μL) were placed on opposite sides of the bacterial lawn (using a transparent template to guide spot placement), and several minutes elapsed for the liquid to settle in before placing nematodes down on the assay. Recording began immediately upon worm placement. 0.6 μL of the control was placed on one side of the lawn, and 0.6 μL of the experimental cue was placed on the other side of the lawn, changing the location of the cue throughout trials between left/right and top/bottom to avoid bias.
# Nematodes were isolated by gender at the L4 stage the day before being used in trials as developed adults. Worms were evenly divided and placed at two points equidistant from the foci of the scoring region. Trials were recorded for 20 minutes, and frames were collected for analysis at 1 frame per second. Results were averaged from at least three different trials. For every nematode species in this study, a different total number of worms (using water in both scoring regions) was tested to determine the minimum number of worms necessary for consistent unbiased results over a 20 minute trial. The total number of worms used in the multiple species assays depended on that species' optimal parameters. 10 worms were used for P. redivivus males and females, 20 worms were used for C. elegans males and O. dolichuridae males, and 14 worms were used for S. glaseri males. The Automated Software was used to compare worm occupancy in each scoring region over time, and the Chemotaxis Index (Bargmann et al., Cell 74:515-27 (1993), which is hereby incorporated by reference in its entirety) was adapted to score preference or avoidance to each ascaroside.
# A video camera attached to the microscope produced a digital video stream, which was then analyzed. The ratio of the time the average worm spent in each region of interest was calculated for every trial. For ease of implementation, all worms in a single experiment were assumed to be roughly the same size. Thus worm pixels were counted instead of whole worms, allowing fractions of a worm in the region of interest to be taken into account. It also eliminated the need for a shape-based worm identification algorithm, and allowed each frame to be analyzed independently. A band-pass filter was applied to each frame to eliminate the effect of uneven lighting and also accentuate the worms against the background. The worm was then identified after thresholding the filtered image. Throughout each experiment, the locations and sizes of the regions of interest were known. Through the filtering described above, it is known which pixels are occupied by worms and which ones are not. Thus, the ratio of worm-pixels to all pixels inside the region of interest can be calculated to produce the worm-occupancy ratio. This calculation was done for every frame, giving a plot output of worm-occupancy ratio vs. time for each region.
# Panagrellus redivivus = assay: Ascaroside function (Table 12), Panagrellus redivivus; assay type: in vivo
# Protocol: as §1
# S. glaseri = assay: Ascaroside function (Table 12), S. glaseri; assay type: in vivo
# Protocol: as §1
# S. feltiae IJs = assay: Dispersal assay, S. feltiae IJs; assay type: in vivo; conditions: physiologically relevant concentrations
# Protocol: S. feltiae IJs were washed with MILLI-Q water three times and incubated in 6 cm petri dishes for […] with a small amount (4-5 ml) of MILLI-Q water. Nematodes were placed the following day on a 10.7 g/L agar with 1010 g/cm^2 gel strength (PhytoTechnology Lab. Shawnee Mission, Kans.). Nematode behavior was assayed on multiple plates with internal plate replicates to rule out the possibility that behavior was affected by plate composition. Approximately 300 IJs in 10 μl water were placed on an agar medium and the test compounds or extracts (1-2 μl) were placed into the nematode suspension. Upon absorption (˜15 minutes) of the liquid, the freely moving nematodes were video recorded for 5-10 minutes. Dispersal behavior is temperature and season dependent. During winter, the assay is effective at room temperature (22±1° C.). During summer, the assay requires a temperature controlled environment due to the effects on nematode behavior above 23° C.
# For entomopathogenic nematodes (EPN), insect cadavers are known to promote dispersal behavior of the IJ stage (Shapiro-Ilan et al., J. Invertebr. Pathol. 83:270-72 (2003), which is hereby incorporated by reference in its entirety). An assay was therefore developed to identify compounds in consumed insect cadavers that promote dispersal. Approximately 300 IJs of S. feltiae in 10 μl of water were placed on an agar plate (FIG. 64B). […]
# [5] = tested on: Meloidogyne javanica, M. floridensis, M. incognita, M. hapla; assay: Ascaroside function (Table 12), root-knot nematodes; assay type: in vivo, Meloidogyne spp.; conditions: Meloidogyne javanica, M. floridensis, M. incognita, M. hapla
# Protocol: as §1
# [6] = tested on: Steinernema riobrave, S. diaprepesi, S carpocapse; assay: Ascaroside function (Table 12), Steinernema riobrave group; assay type: in vivo, Steinernema spp.
# Protocol: as §1
# [7] = tested on: Heterorhabditis bacteriophora, H. zealandica, H. floridensis; assay: Ascaroside function (Table 12), Heterorhabditis; assay type: in vivo, Heterorhabditis spp.; conditions: Heterorhabditis bacteriophora, H. zealandica, H. floridensis
# Protocol: as §1
Structure (SMILES),"dispersing nematodes, normalized to percent of the positive control response (C. elegans dauer larvae)",C. elegans male chemotaxis to a point source (C. elegans males),amount eliciting C. elegans male attraction from a distance (as low as) (C. elegans males),Attract Males (C. elegans [1]),"Dispersal (of dauer larvae, infectious juveniles) (C. elegans [1])",Promote Dauer Formation (C. elegans [1]),"Dispersal (of dauer larvae, infectious juveniles) (S. feltiae)",most active amount for attraction in C. elegans (C. elegans [2]),dauer-inducing activity (C. elegans [3]),preference for areas conditioned by ascaroside [4],Attract Females/Herm. (Panagrellus redivivus),Attract Males (Panagrellus redivivus),Attract Males (S. glaseri),substitution for ascr#2 in the C. elegans dispersal blend (C. elegans dauer larvae),substitution for ascr#2 in the C. elegans dispersal blend (C. elegans dauer larvae; listed as Ascr#9),dispersal activity when tested alone (S. feltiae IJs),"Dispersal (of dauer larvae, infectious juveniles) [5]",Repel Females/Herm. [5],"Dispersal (of dauer larvae, infectious juveniles) [6]","Dispersal (of dauer larvae, infectious juveniles) [7]"
CC(=O)CCC[C@@H](C)O[C@@H]1O[C@@H](C)[C@H](O)C[C@H]1O [ascr#2],40%,chemotax towards,≤ 500 attomol,ascr#2,ascr#2,([strong]),ascr#2,~1 pmol,promote dauer entry,–,–,–,–,–,–,–,–,–,–,–
C[C@H](CC/C=C/C(=O)Nc1ccc(C(=O)O)cc1)O[C@@H]1O[C@@H](C)[C@H](O)C[C@H]1O [ascr#8],50%,not active,–,ascr#8,ascr#8,([strong]),ascr#8,–,promote dauer entry,preferred,ascr#8,ascr#8,ascr#8,–,–,–,–,–,–,–
C[C@H](CCC(=O)O)O[C@@H]1O[C@@H](C)[C@H](O)C[C@H]1O [ascr#9],–,–,–,ascr#9,–,–,ascr#9,–,–,preferred,–,ascr#9,–,can replace,able to substitute,did not have activity,ascr#9,ascr#9,ascr#9,ascr#9
C[C@H](CC(=O)O)O[C@@H]1O[C@@H](C)[C@H](O)C[C@H]1O [ascr#11],–,–,–,–,–,–,–,–,–,–,–,–,–,–,–,did not have activity,–,–,ascr#11,–
